According to patent publication US20220242874A1, “CAMPTOTHECIN DERIVATIVES” (SUN PHARMA ADVANCED RESEARCH COMPANY LIMITED, priority 2019, published 2022):
Counter-ions that a name gives are not always drawn. Like-named read-outs stand apart in the source and are kept apart here.

Assays:
[1] = tested on: NCI H69 cells; assay: In-vitro cancer cell growth inhibition assay (MTT); assay type: cell-based; conditions: Homo sapiens, read-out: IC50 (nM) NCI H69
Description: (§1) The compounds of the present invention were evaluated for their ability to inhibit the growth of various cell line models of small cell lung cancer (SCLC), colon cancer, pancreatic cancer and triple negative breast cancer (TNBC) in-vitro. Details of the cell lines and their respective complete growth media are described in Table 3. The growth inhibition assay was carried out as described below. Briefly, cells in complete growth media were seeded in 96-well plates at appropriate cell densities (seeding density details described in Table 3) and incubated at 37° C., 5% CO2 (3-4 hours for NCI-H526, NCI-H69, NCI-H187 and overnight for the rest of the cells). Serial dilutions of test compound in DMSO were added to the cells while maintaining the final DMSO concentration of 0.4%-0.5% in the well. Plates were incubated for 96-144 h (the exact duration for each assay is described in Table 3) at 37° C., 5% CO2. Subsequently, MTT (final concentration 0.5 mg/mL in media) was incubated with the cells at 37° C., 5% CO2 for 4-5 hours. The formazan crystals were dissolved overnight at 37° C., 5% CO2 using 100 μL extractant (10% SDS in 0.01N HCl) and quantified using absorbance at 570 nm with reference wavelength 630 nm. Growth inhibition was represented as percent decrease in absorbance compared to vehicle treated cells.

[2] = tested on: NCI H526 cells; assay: In-vitro cancer cell growth inhibition assay (MTT); assay type: cell-based; conditions: Homo sapiens, NCI-H526, 96-144 h, read-out: IC50 (nM) NCI H526
Description: as §1

[3] = tested on: HT-29 cells; assay: In-vitro cancer cell growth inhibition assay (MTT); assay type: cell-based; conditions: Homo sapiens, read-out: IC50 (nM) HT-29
Description: as §1

[4] = tested on: PANC-1 cells; assay: In-vitro cancer cell growth inhibition assay (MTT); assay type: cell-based; conditions: Homo sapiens, read-out: IC50 (nM) PANC-1
Description: as §1

[5] = Buffer stability (phosphate buffer, 37° C., HPLC); assay type: physicochemical; conditions: 200 μg/ml
Description: The representative compounds were first dissolved in a minimum quantity of DMSO in a volumetric flask and diluted up to the mark with diluent (water: acetonitrile 30:70). […] After the elapsed time, the buffer samples were diluted 4 times with acetonitrile and injected into an HPLC system. Quantification of representative compounds was done by HPLC.
HPLC method: Chromatographic separation was achieved on a Hypersil BDS C18 (100×4.6 mm, 5 μ) column using 25 mM KH2PO4 buffer (pH 7 with TEA): acetonitrile, 90:10 v/v as mobile phase-A and 25 mM KH2PO4 buffer (pH 7 with TEA): acetonitrile 30:70 v/v as mobile phase-B. The gradient started with initially 5% B to 45% B in 10 mins followed by 80% B in 22 mins and held up to 25 mins and then returned to initial conditions at 26 mins and continued up to 30 mins. The injection volume was kept 10 μL and the flow rate was kept at 1.0 mL/min. The UV-Vis Detector was set at 220 nm, the column oven was set at 37° C. and the sample cooler was set at […]. Total chromatographic runtime was 30 min.

[6] = tested on: NCI H187 cells; assay: In-vitro cancer cell growth inhibition assay (MTT); assay type: cell-based; conditions: Homo sapiens
Description: as §1, with “Plates were incubated for 96-144 h (the exact duration for each assay is described in Table 3) at 37° C., 5% CO2.” left out

[7] = tested on: MX-1 cells; assay: In-vitro cancer cell growth inhibition assay (MTT); assay type: cell-based; conditions: Homo sapiens, read-out: IC50 (nM) MX-1
Description: as §1

[8] = tested on: MDA-MB-468 cells; assay: In-vitro cancer cell growth inhibition assay (MTT); assay type: cell-based; conditions: Homo sapiens, read-out: IC50 (nM) MDA-MB-468
Description: as §1

[9] = tested on: MDA-MB-231 cells; assay: In-vitro cancer cell growth inhibition assay (MTT); assay type: cell-based; conditions: Homo sapiens, read-out: IC50 (nM) MDA-MB-231
Description: as §1

[10] = NCI-H187, read-out: IC50 (nM) NCI H187

Row | Structure (SMILES) | IC50 ([1]; NCI-H69, 144 h) | IC50 [2] | IC50 ([3]; HT-29, 96 h) | IC50 ([4]; PANC-1, 96 h) | % of Unconverted Compounds of Formula I ([5]; pH 4.7, 0 hr) | % of Unconverted Compounds of Formula I ([5]; pH 4.7, 2 hr) | % of Unconverted Compounds of Formula I ([5]; pH 4.7, 4 hr) | % of Unconverted Compounds of Formula I ([5]; pH 4.7, 6 hr) | % of Unconverted Compounds of Formula I ([5]; pH 4.7, 8 hr) | % of Unconverted Compounds of Formula I ([5]; pH 6.0, 0 hr) | % of Unconverted Compounds of Formula I ([5]; pH 6.0, 2 hr) | % of Unconverted Compounds of Formula I ([5]; pH 6.0, 4 hr) | % of Unconverted Compounds of Formula I ([5]; pH 6.0, 6 hr) | % of Unconverted Compounds of Formula I ([5]; pH 6.0, 8 hr) | % of Unconverted Compounds of Formula I ([5]; pH 7.4, 0 hr) | % of Unconverted Compounds of Formula I ([5]; pH 7.4, 2 hr) | % of Unconverted Compounds of Formula I ([5]; pH 7.4, 4 hr) | % of Unconverted Compounds of Formula I ([5]; pH 7.4, 6 hr) | % of Unconverted Compounds of Formula I ([5]; pH 7.4, 8 hr) | IC50 [6, 10] | other results
1 | CCc1c2c(nc3ccc(O)cc13)-c1cc3c(c(=O)n1C2)COC(=O)[C@@]3(CC)OC(=O)OCCSSCCOC(=O)N(C)c1ccc(N2CCN(C)CC2)cc1.Cl [Compound I.3, 2-(2-{N-Methyl-N-[4-(4-methylpiperazin-1-yl)phenyl]carbamoyloxy}ethyldisulfanyl)ethyl [(4S)-4,11-diethyl-3,4,12,14-tetrahydro-9-hydroxy-1H-pyrano[3′,4′:6,7]indolizino[1,2-b]quinoline-3,14-(4H,12H)dione-4-yl] carbonate hydrochloride] | 1.2 nM | 1.91 nM | 43.7 nM | 862 nM | 100% | 100% | 100% | 100% | 100% | 100% | 93.8% | 97.8% | 98.2% | 100% | 100% | 100% | 100% | 100% | 100% | 0.68 nM | –
2 | CCc1c2c(nc3ccc(O)cc13)-c1cc3c(c(=O)n1C2)COC(=O)[C@@]3(CC)OC(=O)OCCSSCCOC(=O)Nc1ccc(N2CCN(C)CC2)cc1.Cl [Compound I.2, 2-(2-{N-[4-(4-Methylpiperazin-1-yl)phenyl]carbamoyloxy}ethyldisulfanyl)ethyl [(4S)-4,11-diethyl-3,4,12,14-tetrahydro-9-hydroxy-1H-pyrano[3′,4′:6,7]indolizino[1,2-b]quinoline-3,14-(4H,12H)dione-4-yl] carbonate hydrochloride] | 1.3 nM | 1.58 nM | 31 nM | 508 nM | 100% | 97.3% | 100% | 100% | 100% | 100% | 95.5% | 98.5% | 100% | 100% | 100% | 90.1% | 93.5% | 88.7% | 91.6% | 0.27 nM | IC50 ([7]; MX1, 144 h): 5.9 nM; IC50 ([8]; MDA-MB-468, 96 h): 6.6 nM; IC50 ([9]; MDA-MB-231, 96 h): 112 nM
3 | CCc1c2c(nc3ccc(OC(=O)N4CCC(N5CCCCC5)CC4)cc13)-c1cc3c(c(=O)n1C2)COC(=O)[C@]3(O)CC [Irinotecan HCl trihydrate, reference compound] | – | – | – | – | – | – | – | – | – | – | – | – | – | – | – | – | – | – | – | – | IC50 ([7]; MX1, MX-1, 144 hr, MTT): 5910 nM; IC50 ([8]; MDA-MB-468, 96 hr, MTT): 4580 nM; IC50 ([1]; NCI-H69, 144 hr, MTT): 473 nM; IC50 ([2]; MTT): 750 nM; IC50 ([3]; HT-29, 96 hr, MTT): 14000 nM; IC50 ([9]; MDA-MB-231, 96 hr, MTT): 21700 nM; IC50 ([4]; PANC-1, 96 hr, MTT): 23000 nM; IC50 ([6]; NCI-H187, MTT, read-out: IC50 (nM) NCI H187): 385 nM
